Activity calls are given as the source filed them. How the calls were made is not given here.
System: M. tuberculosis H37Rv growth inhibition with meropenem
Test: dose response, H37Rv, with and without meropenem (AID 434987);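 further: growth over 7 days at 37 °C before Alamar Blue read on day 9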
[1] = M. tuberculosis H37Rv growth inhibition, measured here: IC50 without meropenem
[2] = M. tuberculosis H37Rv growth inhibition, measured here: IC90 without meropenem
[3] = measured here: IC90 with meropenem

| Compound | IC50 | IC50 [1] [µM] | IC90 [2] [µM] | IC90 [3] [µM] |
| --- | --- | --- | --- | --- |
| C/C(=N\NC(=O)c1ccccc1O)c1ccc(Br)s1 | > 100 µM (inactive) | > 100 | > 100 | > 100 |
| COc1ccccc1/C=C/C(=O)NCC(=O)N/N=C/c1cc(Br)ccc1OC | 24 µM | > 100 | > 100 | > 100 |
| C=C(C)COc1ccc2c(C)c(C)c(=O)oc2c1OCC(=C)C | 79.2 µM (inactive) | > 100 | > 100 | > 100 |
| O=C(CC1SC(=O)NC1=O)Oc1ccc(/C=N/NC(=O)c2ccccc2O)cc1 (centres undefined) | 6.41 µM | 41.3 | > 100 | > 100 |
| CCNc1nc(CN2CCCCC2)nc2scc(-c3ccccc3)c12 | 8.75 µM | 47.2 | > 100 | 57.3 |
| C=CCn1c(SCc2ccc(C(=O)Nc3nccs3)cc2)nnc1-c1ccc(C)c(Cl)c1 | 95.3 µM (inactive) | > 100 | > 100 | > 100 |
| CCc1ccc(NC(=S)Nc2ccc3[nH]c(=O)[nH]c3c2)cc1 | > 100 µM (inactive) | > 100 | > 100 | > 100 |
| CCOC(=O)c1sc2ccccc2c1NC(=O)c1coc2ccccc2c1=O | > 100 µM (inactive) | > 100 | > 100 | > 100 |
| CC(C)(C)c1nc2scc(-c3cccs3)c2c(=O)o1 | > 100 µM (inactive) | > 100 | > 100 | > 100 |
| CC(C)CCSc1nc(N2CCOCC2)c2c(c1C#N)CC(C)(C)OC2 | 78.2 µM (inactive) | > 100 | > 100 | > 100 |
| C/C(=N\OCC(=O)Nc1nc2ccccc2s1)c1ccccc1 | 13.1 µM | 47.6 | 54.1 | 35.6 |
| CN(C)CCCN(C(=O)/C=C/c1cccs1)c1nc2ccc(F)cc2s1 | 45.2 µM (inactive) | 45.8 | 49.2 | 48.4 |
| c1ccc(-c2cc(N3CCOCC3)nc3ccccc23)cc1 | 2.78 µM | > 100 | > 100 | 91.5 |
| CC(C)(C)c1ccc(OCc2ccc(C(=O)N/N=C3\CC4CC=CC34)cc2)cc1 (centres undefined) | 26.2 µM (inactive) | 31.2 | 46.5 | 45.3 |
| COc1ccc(-c2nc(-c3cccc(C)c3)no2)cc1OC | > 100 µM (inactive) | > 100 | > 100 | > 100 |
| CN(C)c1ccc(/C=N/NC(=O)c2cc(-c3ccc4c(c3)OCO4)n[nH]2)cc1 | > 100 µM (inactive) | > 100 | > 100 | > 100 |
| O=C(Nc1ccccc1)c1c2c(nc3ccccc13)CCCC2 | 17.1 µM | > 100 | > 100 | > 25 |
| N#Cc1ccc(NCC(=O)Nc2ccc(S(=O)(=O)N3CCCCC3)cc2)cc1 | > 100 µM (inactive) | > 100 | > 100 | > 100 |
| O=C(N/N=C/c1cccc(Br)c1)c1ccc(Cn2cc(Br)cn2)o1 | 99.8 µM (inactive) | > 100 | > 100 | > 100 |
| N/C(=N\c1nc2ccccc2o1)NC(=O)c1ccccc1NC(=O)c1ccccc1 | > 100 µM (inactive) | > 100 | > 100 | > 100 |
| COc1ccc(-c2cc3nc(C)cc(N4CC(C)CC(C)C4)n3n2)cc1 (centres undefined) | > 100 µM (inactive) | > 100 | > 100 | > 100 |

| Compound | IC50 | IC50 [1] [µM] | IC90 [2] [µM] | IC90 [3] [µM] |
| --- | --- | --- | --- | --- |
| CCOC(=O)c1ccc(C(=O)NNC(=O)C2CC=CCC2)cc1 (centres undefined) | 8.57 µM (inactive) | 20.9 | 31.9 | 40 |
| Cc1sc2nc(C(C)(C)C)oc(=O)c2c1C | > 100 µM (inactive) | > 100 | > 100 | > 100 |
| COC(=O)c1cccc(NC(=S)NCCC2=CCCCC2)c1 | > 100 µM (inactive) | > 100 | > 100 | > 100 |
| CCC1Nc2ncnc(N3CCN(c4ccccc4)CC3)c2N(Cc2ccc(Br)cc2)C1=O (centres undefined) | > 100 µM (inactive) | > 100 | > 100 | > 100 |
| CC(=O)OCC(=O)Nc1ccc(C(C)=O)cc1 | 89.2 µM (inactive) | 95.5 | > 100 | > 100 |
| Cc1nn(CCc2nn[nH]n2)c2nc(-c3ccc(C4CCCCC4)cc3)cc(C(F)(F)F)c12 | 8.62 µM | 24.9 | 50 | > 100 |
| CN1C2CCC1CC(OC(=O)c1ccc([N+](=O)[O-])cc1)C2 (centres undefined) | > 100 µM (inactive) | > 100 | > 100 | > 100 |
| N#Cc1c(C(F)(F)F)cc(-c2ccccc2)nc1SCc1nc(N)nc(N2CCOCC2)n1 | > 100 µM (inactive) | > 100 | > 100 | > 100 |
| CC(C)Cn1c2c(c(O)c(C(=O)Nc3ccc(F)cc3)c1=O)CCCC2 | 82.2 µM (inactive) | > 100 | > 100 | > 100 |
| CCCCCCC(=O)Nc1nc(C)c(-c2csc(Nc3cc(Cl)ccc3OC)n2)s1 | 42.3 µM (inactive) | 51.1 | > 100 | > 100 |
| Cc1cc(C)cc(NC(=S)NN)c1 | 55.5 µM (inactive) | 78.3 | > 100 | > 100 |
| Cc1cccc(NC(=S)NC2CC3C=CC2C3)c1 (centres undefined) | 22.3 µM (inactive) | 23.8 | > 100 | > 100 |
| CS(=O)(=O)N(Cc1ccccc1)c1ccc(C(=O)N2CCN(c3cccc(Cl)c3)CC2)cc1 | > 100 µM (inactive) | > 100 | > 100 | > 100 |
| CC1CC1C(=O)Nc1nc(-c2cccs2)c(-c2cccs2)s1 (centres undefined) | 94.3 µM (inactive) | > 100 | > 100 | > 100 |
| CC1CCCC(NC(=O)COC(=O)c2cccc(NS(=O)(=O)/C=C/c3ccccc3)c2)C1C (centres undefined) | > 100 µM (inactive) | > 100 | > 100 | > 100 |
| Cc1ccc(S(=O)(=O)NCCCCCC(=O)Nc2ccccn2)cc1 | > 100 µM (inactive) | > 100 | > 100 | > 100 |
| O=C(NCc1ccco1)c1cc2n(n1)C(C(F)(F)F)CC(c1ccc(F)cc1)N2 (centres undefined) | > 100 µM (inactive) | > 100 | > 100 | > 100 |
| COCCSc1nc2sc3c(c2c(=O)n1-c1ccccc1)CCN(C)C3 | 38.1 µM (inactive) | 41.9 | 54.3 | 53.3 |
| CCCOc1ccc(C2Nc3cccc4cccc(c34)N2)cc1 | > 100 µM (inactive) | > 100 | > 100 | > 100 |
| O=C(Nc1ccc([N+](=O)[O-])cc1)c1cc2ccccc2nc1Cl | > 100 µM (inactive) | > 100 | > 100 | > 100 |
